Data as given in patent US20190070165A1, “N-HYDROXYISOQUINOLINEDIONE INHIBITORS OF HBV REPLICATION” (Saint Louis University, priority 2016, published 2019).

Key:
HSV-1 = HSV-1 replication inhibition assay in Vero cells; assay type: cell-based, herpes simplex virus 1; conditions: 5 μM, Vero cells; for log reduction at 5 µM: Human alphaherpesvirus 1, 24 h, read-out: HSV-1 suppression (log10 at 5 μM), class symbol
Procedure: Thirty-seven compounds were counter-screened for efficacy against HSV-1 to evaluate specificity of the inhibitors and to help determine if the efficacy against HBV replication may be due to an unsuspected indirect effect on the cells. Vero cells infected with HSV-1 at an MOI of 0.1 were treated with 5 μM of compound for 24 hours. Inhibition was calculated as log 10 suppression of plaque forming units compared with DMSO vehicle control.
Vero cells were maintained DMEM supplemented with 3% newborn calf serum, 3% bovine growth serum, 2 mM L-glutamine, and P/S. Test compounds were applied to the cells in the presence of 0.05% DMSO. The herpes simplex virus 1 (HSV-1) strain used for screening was a de-identified clinical isolate from the Saint Louis University Hospital passaged once in culture.
Compounds and virus were diluted in phosphate buffered saline (PBS) containing 2% newborn calf serum and 2 mM L-glutamine so that the final concentration of compound was 5 μM. The cells were incubated at 37° C. for 1 hour with the virus containing inoculum, then the inoculum was removed and the wells were washed once in PBS. Compound diluted to 5 μM in supplemented DMEM was added and cells were incubated at 37° C. for an additional 23 hours. The plates were then microscopically inspected for cytopathic effect (CPE) or toxicity and then frozen at −80° C. Virus titers for wells with limited CPE compared to DMSO vehicle-treated controls were then determined by plaque assay on Vero cells. Each experiment was repeated at least once.

HBV replication = HBV replication inhibition assay in HepDES19 cells (strand-preferential q-PCR); assay type: cell-based, Hepatitis B virus; conditions: for HBV replication inhibition (qualitative): Table 3, qualitative screen at 20 μM
Procedure: HBV replication assay. […] Cells were seeded into 6-well plates and incubated in DMEM/F12, 10% fetal bovine serum (FBS), 1% penicillin/streptomycin (P/S) with 1 μg/mL tetracycline. Tetracycline was withdrawn after 24 hours. The test compound was applied to duplicate wells 48 hours later in medium containing a final DMSO concentration of 1%, and medium containing the compound was refreshed daily for the following two days. Cells were harvested and non-encapsidated nucleic acids were digested with micrococcal nuclease (New England Biolabs). HBV DNA was purified from capsids using QIAamp Cador Pathogen Mini Kit (Qiagen) with proteinase K incubation overnight at 37° C. TaqMan PCR was performed for 40 cycles at an annealing temperature of 60° C.
Thirty-nine HID, HPD, flutimide, and related POH compounds (Structures shown in FIG. 3) were screened for their ability to inhibit HBV replication in HepDES19 cells. […] Inhibition was calculated as the amount of plus-polarity DNA relative to the DMSO treated controls.
Briefly, HepDES19 were seeded in 12-well plates at 2×10^5 cells per well in the absence of tetracycline. Test compound was applied to cells 48 hours after removal of tetracycline. […] HBV DNA was purified from capsids using a QIAamp pathogen minikit with proteinase K digestion extended to overnight at 37° C. TaqMan PCR was performed for 40 cycles with an annealing temperature of 60° C.

HBV RNaseH = HBV RNaseH (Hepatitis B virus genotype D subtype ayw, UniProt P03156); conditions: Table 3, compounds at 100, 60 and 20 μM; compounds 1-91 and 138-140 previously reported (Cai et al., 2014)
Chain of HBV RNaseH (P03156 671-832): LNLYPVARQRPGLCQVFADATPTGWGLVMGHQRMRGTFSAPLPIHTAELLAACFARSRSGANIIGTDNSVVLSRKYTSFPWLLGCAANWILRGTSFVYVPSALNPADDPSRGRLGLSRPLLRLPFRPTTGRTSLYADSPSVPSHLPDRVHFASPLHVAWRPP

Row | Structure (SMILES) | HSV-1 suppression (log10 at 5 μM) (HSV-1; 24 hours, MOI 0.1, plaque forming units vs DMSO) [log10] | HBV replication inhibition (qualitative) (HBV replication) | Inhibition of HBV RNaseH, Oligonucleotide directed cleavage assay (HBV RNaseH) | log reduction at 5 µM (HSV-1) | HBV replication inhibition / activity (HBV replication; HepDES19 cells)
1 | Cc1cc(C2CCCCC2)n(O)c(=O)c1 [Compound 41, Ciclopirox, reference compound] | 5.0 | − (No inhibition detected at 20 μM) | − (No inhibition detected at 100 μM) | – | –
2 | CCOC(=O)C1=CC2C=CC=CC2N(O)C1=O (stereo not drawn) [Compound 42] | – | − (No inhibition detected at 20 μM) | − (No inhibition detected at 100 μM) | < 1 | –
3 | O=C1C=CC2C=CC=CC2N1O (stereo not drawn) [Compound 43] | – | − (No inhibition detected at 20 μM) | − (No inhibition detected at 100 μM) | < 1 | –
4 | Cc1cc(C)n(O)c(=O)c1C#N [Compound 44] | – | − (No inhibition detected at 20 μM) | − (No inhibition detected at 100 μM) | < 1 | –
5 | O=C1c2cccc3cccc(c23)C(=O)N1O [Compound 45] | – | − (No inhibition detected at 20 μM) | − (No inhibition detected at 100 μM) | < 1 | –
6 | O=C1c2ccc3ccccc3c2C(=O)N1O [Compound 128] | – | – | − (No inhibition detected at 100 μM) | < 1 | –
7 | O=C(O)c1nc(Cl)c2ccccc2c1O [Compound 132] | – | − (No inhibition detected at 20 μM) | − (No inhibition detected at 100 μM) | – | –
8 | O=C1CCC(=O)N1O [Compound 139] | – | − (No inhibition detected at 20 μM) | − (No inhibition detected at 100 μM) | – | inactive
9 | CC1=C(C#N)C(=O)NC(=O)C1Cc1ccc(-c2ccccc2)o1 (stereo not drawn) [Compound 140] | – | − (No inhibition detected at 20 μM) | − (No inhibition detected at 100 μM) | < 1 | –
10 | CC1CC(=O)N(O)C(CC(C)CC(C)(C)C)C1 (stereo not drawn) [Compound 191, Piroctone olamine, reference compound] | – | − (No inhibition detected at 20 μM) | − (No inhibition detected at 100 μM) | – | –
11 | Oc1nc2ccccc2nc1O [Compound 198, 2,3-dihydroxy-quinoxaline] | – | − (No inhibition detected at 20 μM) | − (No inhibition detected at 100 μM) | < 1 | –
12 | O=C1Cn2c(cc3ccccc32)C(=O)N1O [Compound 236] | – | − (No inhibition detected at 20 μM) | − (No inhibition detected at 100 μM) | < 1 | –
13 | O=C1Cn2c(cc3cc(Cl)ccc32)C(=O)N1O [Compound 237] | – | − (No inhibition detected at 20 μM) | − (No inhibition detected at 100 μM) | < 1 | –
14 | COc1ccc2c(c1)cc1n2CC(=O)N(O)C1=O [Compound 238] | – | − (No inhibition detected at 20 μM) | − (No inhibition detected at 100 μM) | < 1 | –
15 | O=C1Cn2c(cc3ccccc32)C(=O)N1 [Compound 239] | – | − (No inhibition detected at 20 μM) | − (No inhibition detected at 100 μM) | < 1 | –
16 | O=C1Cn2c(cc3cc(F)ccc32)C(=O)N1O [Compound 241] | – | − (No inhibition detected at 20 μM) | − (No inhibition detected at 100 μM) | < 1 | –
